The pKd is −log10 of the Kd, conventionally taken in molar units.

We go through 35 compounds from paper PMC4452637, “Identification of positron emission tomography (PET) tracer candidates by prediction of the target-bound fraction in the brain” (EJNMMI Research, 2014).

pKd: −log10 of the molar value. Where two headings read alike, the source gives them in different places.

Data set [1] in a line: Unbound fraction in brain homogenate (fu,brain); Vu,brain calculated from it with pH-partition model. As to conditions: calculated from reported fu,brain and tracer pKa with pH-partition model (tracers with fu,brain tabulated, footnote h of Table S1).
Description: The unbound volume of distribution in the brain (Vu,brain) describing the extent of non-specific partitioning was determined for 31 tracers using a previously described high-throughput brain slice method [11].
The subject of data set [2] is 5HT2a. Particulars: PET, temporal cortex, 47 (Additional file 1), cited from earlier work.
Details of data set [3]: method as in ref 10 (a number printed in a supplementary file, which may have a reference list of its own: not looked up in the article's list). Particulars: unbound fraction in homogenized brain tissue, reported; cited from earlier work.
The subject of data set [4] is TSPO. Particulars: PET, basal ganglia, 81 (Additional file 1), cited from earlier work.
Data set [5] concerns the target 5HT1b. Further details: method as in ref 10 (Additional file 1). As to conditions: literature value; ref 10 (Additional file 1); cited from earlier work.
Data set [6] can be described thus: High-throughput brain slice method (Vu,brain). As to conditions: unbound volume of distribution in brain, measured in rat brain slices, LC-MS/MS (no fu,brain tabulated in Table S1).
In data set [7] the test system is Amyloid. Particulars: PET, cortex, 61 (Additional file 1), cited from earlier work.
Data set [8] concerns the target TSPO. Further details: method as in ref 28, 29, 55 (Additional file 1). Particulars: literature value; 55 (Additional file 1); cited from earlier work.
The target in data set [9] is DAT. Further details: method as in ref 26, 31, 57 (Additional file 1). As to conditions: literature value; 57 (Additional file 1); cited from earlier work.
For data set [10], the target named is NET. Particulars: literature value; 76 (Additional file 1); cited from earlier work.
Data set [11] deals with KOR. More on the design: method as in ref 35 (Additional file 1). Particulars: literature value; ref 35 (Additional file 1); cited from earlier work.
Data set [12] concerns the target D2. More on the design: method as in ref 22, 31, 62, 82 (Additional file 1). Particulars: literature value; 82 (Additional file 1); cited from earlier work.
For data set [13], the target named is D2/D3. More on the design: method as in ref 59 (Additional file 1). Particulars: literature value; ref 59 (Additional file 1); cited from earlier work.
The target of data set [14] is Amyloid. Further details: method as in ref 12, 13, 14, 15 (Additional file 1). Particulars: literature value; 15 (Additional file 1); cited from earlier work.
For data set [15], the target named is Sigma. Further details: method as in ref 77 (Additional file 1). As to conditions: literature value; ref 77 (Additional file 1); cited from earlier work.
Data set [16] deals with DAT. Particulars: PET, striatum, 58 (Additional file 1), cited from earlier work.
The target in data set [17] is H3. More on the design: method as in ref 38 (Additional file 1). As to conditions: literature value; ref 38 (Additional file 1); cited from earlier work.
Data set [18] concerns 5HT1a. As to conditions: PET, hippocampus, 65 (Additional file 1), cited from earlier work.
For data set [19], the target named is CB1r. More on the design: method as in ref 48 (Additional file 1). As to conditions: literature value; ref 48 (Additional file 1); cited from earlier work.
Data set [20] has as its target SERT. More on the design: method as in ref 5, 19, 43, 45, 67 (Additional file 1). Particulars: literature value; 67 (Additional file 1); cited from earlier work.
The target of data set [21] is NK1. Further details: method as in ref 36 (Additional file 1). Particulars: literature value; ref 36 (Additional file 1); cited from earlier work.
Data set [22] concerns the target 5HT1a. Further details: method as in ref 50 (Additional file 1). As to conditions: literature value; ref 50 (Additional file 1); cited from earlier work.
Data set [23] has as its target 5HT2a. More on the design: method as in ref 7 (Additional file 1). As to conditions: literature value; ref 7 (Additional file 1); cited from earlier work.
Data set [24] relates to Sigma. In words: PET imaging of specific target binding (BPND, tracer functionality). The data set is classed as in vivo. As to conditions: non-functioning tracer: corresponds to arbitrarily assigned low ftb 0.09, not from PET data; blank in Table S1.
The subject of data set [25] is GABA. As to conditions: non-functioning tracer: corresponds to arbitrarily assigned low ftb 0.09, not from PET data; blank in Table S1.
Data set [26] concerns nAChr a4b2. Particulars: PET, thalamus, ref 3 (Additional file 1), cited from earlier work.
Data set [27] deals with D1. More on the design: method as in ref 52, 53 (Additional file 1). As to conditions: literature value; 53 (Additional file 1); cited from earlier work.
The target of data set [28] is AchE. As to conditions: literature value; ref 18 (Additional file 1); cited from earlier work.
Data set [29] deals with GABA. Further details: method as in ref 33, 74 (Additional file 1). Particulars: literature value; 74 (Additional file 1); cited from earlier work.
Data set [30] has as its target nAChr a4b2. More on the design: method as in ref 2 (Additional file 1). As to conditions: literature value; ref 2 (Additional file 1); cited from earlier work.

As to `O=C(c1ccc([18F])cc1)C1CCN(CCn2c(=S)[nH]c3ccccc3c2=O)CC1` [[^18 F]Altanserin], the “V u,brain” value in data set [1] is 122 mL/g brain. In addition, the results for the “BP ND” value in [2] and in data set [2] (listed as [^18F]Altanserin) were 1.06 and 1.06[8], respectively. The “fu,brain” value in data set [3] is reported as 0.02.

In the case of `CC(=O)N(Cc1ccccc1OCC[18F])c1cnccc1Oc1ccccc1` [[^18 F]FEPPA], the “V u,brain” value in [1] is recorded as 15 mL/g brain. Moreover, the results for the “BP ND” value in data set [4] and in data set [4] (listed as [^18F]FEPPA) were 4.4 and 4.4[30], respectively. Also, in [3], the “fu,brain” value is 0.07.

Turning to `Cc1ccc(N2CCN(C)CC2)c2oc(C(=O)Nc3ccc(N4CCOCC4)cc3)cc(=O)c12` [[^11C]AZ10419369], the pKd in [5] is 9.43.

For `CNc1ccc(-c2cc3cc(O)ccc3o2)c([18F])n1` [[^18 F]AZD4694], the “V u,brain” value in [6] is 205 mL/g brain. In addition, the “BP ND” value is 1.2 in [7] and 1.2[16] in data set [7] (listed as [^11C]AZD4694).

`CC(=O)N(Cc1ccccc1OCCF)c1cnccc1Oc1ccccc1` [[^18 F]FEPPA]: the pKd in [8] was 10.15.

For the compound `COC(=O)[C@H]1[C@@H](c2ccc(I)cc2)C[C@@H]2CC[C@H]1N2CCCF` [[^18 F]FP-CIT], in [9], the pKd was 7.48.

For `Cc1ccc([C@H]2C[C@@H]3CC[C@H]([C@H]2C(=O)OCCF)N3C/C=C/I)cc1` [[^18 F]FE-PE2I], in data set [9], the pKd was 7.92.

As to `COc1ccccc1O[C@@H](c1ccccc1)[C@H]1CNCCO1` [[^11C]MeNER], the pKd in data set [10] is 8.60.

Take `COC(=O)N1CCN(C(=O)Cc2ccc(Cl)c(Cl)c2)[C@H](CN2CCCC2)C1` [[^11C]GR103545]: the pKd in data set [11] was 10.32.

`CCN1CCC[C@H]1CNC(=O)c1c(OC)ccc(Br)c1OC` [[^11C]Remoxipride]: in data set [12], the pKd is 6.57.

For `CNCCC(Oc1ccccc1OC)c1ccccc1` (racemic) [[^11C]Nisoxetine], the pKd in data set [10] was 9.14.

As to `CCCN1CCO[C@@H]2c3cc(O)ccc3CCC21` (stereo partly shown) [[^11C]PHNO], in [13], the pKd was 9.25.

In the case of `CNc1ccc(-c2cc3cc(O)ccc3o2)c(F)n1` [[^18 F]AZD4694], the pKd in data set [14] was 8.64.

With `CCCN(CCC)CCc1ccc(OC)c(OCCc2ccccc2)c1` [[^11C]NE100], the pKd in data set [15] is 8.92.

As to `COC(=O)[C@H]1[C@@H](c2ccc(I)cc2)C[C@@H]2CC[C@H]1N2CCC[18F]` [[^18 F]FP-CIT], the “BP ND” value in [16] was 1.0; in data set [16] (listed as [^18F]FP-CIT), 1[32]. The “V u,brain” value in [6] turned out to be 36 mL/g brain.

With `CNC(=O)c1ccc(Oc2ccc3c(c2)CCN(C2CCC2)CC3)nc1` [[^11C]GSK189254A], the pKd in [17] was 10.10.

`CNc1ccc(-c2nc3ccc(O)cc3s2)cn1` [[^11C]AZD2184]: in [14], the pKd was 8.31.

In the case of `COc1ccccc1N1CCN(CCN(C(=O)c2ccc([18F])cc2)c2ccccn2)CC1` [[^18 F]MPPF], the “V u,brain” value in [1] is recorded as 14 mL/g brain. The “BP ND” value in data set [18] was 1.6; in data set [18] (listed as [^18F]MPPF), 1.6[51]. In data set [3], the “fu,brain” value was 0.1.

Consider `CCN1CCC[C@H]1CNC(=O)c1cc(Br)cc(OC)c1OC` [[^11C]FLB457], for which, in [12], the pKd was 10.70.

On to `COc1cccc([C@H]2C[C@@H](N[C@H](C)c3ccccc3)C(=O)N2c2ccc(C(F)(F)F)cc2)c1` [[^11C]MePPEP], for which the pKd in data set [19] is 10.00.

With `CSc1ccc([C@H]2CN3CCC[C@H]3c3ccccc32)cc1` [[^11C]McN5652], in data set [20], the pKd is 9.70.

On to `COc1ccc(-n2nnnc2C(F)(F)F)cc1CN[C@H]1CCCN[C@H]1c1ccccc1` [[^11C]GR205171], for which the “V u,brain” value in data set [1] is recorded as 57 mL/g brain. Moreover, the pKd in data set [21] is 10.80. The “fu,brain” value in [3] is 0.05.

Take `COC(=O)C1C(c2ccc(C)cc2)CC2CCC1N2CC=CI` (stereo not shown) [[^11C]PE2I]: in data set [9], the pKd was 8.31.

Regarding `COc1ccccc1N1CCN(CCN(C(=O)c2ccc(F)cc2)c2ccccn2)CC1` [[^18 F]MPPF], the pKd in data set [22] was 8.48.

Consider `O=C(c1ccc(F)cc1)C1CCN(CCn2c(=S)[nH]c3ccccc3c2=O)CC1` [[^18 F]Altanserin], for which the pKd in data set [23] is 9.49.

With `CCCN(CCC)CCc1ccc(O[11CH3])c(OCCc2ccccc2)c1` [[^11C]NE100], the “V u,brain” value in [1] is 96 mL/g brain. Besides, in data set [24], the “BP ND” value amounted to 0.1. In addition, the “fu,brain” value in data set [3] is given as 0.03.

On to `[11CH3]N1C(=O)CN=C(c2ccccc2)c2cc(Cl)ccc21` [[^11C]Diazepam], for which the “BP ND” value in data set [25] amounted to 0.1.

For the compound `[18F]c1ncccc1OC[C@@H]1CCN1` [[^18 F]2-FA-85380], the entries for the “BP ND” value in [26] and in data set [26] (listed as [^18F]2-FA-85380) were 1.8 and 1.8[3], respectively.

For the compound `CN1CCc2cc(Cl)c(O)cc2[C@@H](c2cccc3ccoc23)C1` [[^11C]NNC112], in data set [27], the pKd was 9.74.

Consider `C=CCN1CCC[C@H]1CNC(=O)c1cc(CCCF)cc(OC)c1OC` [[^18 F]Fallypride], for which the pKd in data set [12] is 10.52.

On to `CN1C(=O)Cc2cc3c(CCC4CCN(Cc5ccccc5)CC4)noc3cc21` [[^11C]CP-126998], for which the pKd in data set [28] was 9.32.

As to `CCOC(=O)c1ncn2c1CN(C)C(=O)c1cc(F)ccc1-2` [[^11C]Flumazenil], the negative logarithm of the Kd (pKd) in data set [29] was 9.15.

For the compound `Cc1ccc(Sc2ccccc2CN(C)C)c(N)c1` [[^11C]MADAM], the pKd in data set [20] is 10.22.

`Cc1ccc([C@H]2C[C@@H]3CC[C@H]([C@H]2C(=O)OCC[18F])N3C/C=C/I)cc1` [[^18 F]FE-PE2I]: the “BP ND” value in data set [16] was 4.1; in data set [16] (listed as [^11C]FE-PE2I), 4.1[27]. The “V u,brain” value in data set [6] is listed as 62 mL/g brain.

As to `Fc1ncccc1OC[C@@H]1CCN1` [[^18 F]2-FA-85380], the pKd in data set [30] was 9.84.
